The target of one series is T1, K-Ras G12C (Homo sapiens, UniProt P01116+P62937, G12C).
T1 construct: endogenous in cells; host or cells: NCI-H358
Kind of series: pERK potency assay in NCI-H358 cells (AlphaLISA SureFire or In-Cell Western). It is filed as cell-based. Conditions: 4 hours incubation. The procedure:
The purpose of this assay was to measure the ability of test compounds to inhibit K-Ras in cells. […] This procedure measures a decrease in cellular pERK in response to test compounds. The procedure described below in NCI-H358 cells is applicable to K-Ras G12C. […]
NCI-H358 cells were grown and maintained using media and procedures recommended by the ATCC. On the day prior to compound addition, cells were plated in 384-well cell culture plates (40 μl/well) and grown overnight in a 37° C., 5% CO2 incubator. Test compounds were prepared in 10, 3-fold dilutions in DMSO, with a high concentration of 10 mM. On the day of assay, 40 nL of test compound was added to each well of cell culture plate using an Echo550 liquid handler (LabCyte®). Concentrations of test compound were tested in duplicate. After compound addition, cells were incubated 4 hours at 37° C., 5% CO2. Following incubation, culture medium was removed and cells were washed once with phosphate buffered saline.
In some experiments, cellular pERK level was determined using the AlphaLISA SureFire Ultra p-ERK1/2 Assay Kit (PerkinElmer). Cells were lysed in 25 μL lysis buffer, with shaking at 600 RPM at room temperature. Lysate (10 μL) was transferred to a 384-well Opti-plate (PerkinElmer) and 5 μL acceptor mix was added. After a 2-hour incubation in the dark, 5 μL donor mix was added, the plate was sealed, and incubated 2 hours at room temperature. Signal was read on an Envision plate reader (PerkinElmer) using standard AlphaLISA settings. Analysis of raw data was carried out in Excel (Microsoft) and Prism (GraphPad). Signal was plotted vs. the decadal logarithm of compound concentration, and IC50 was determined by fitting a 4-parameter sigmoidal concentration response model.
In other experiments, cellular pERK was determined by In-Cell Western. Following compound treatment, cells were washed twice with 200 μL tris buffered saline (TBS) and fixed for 15 minutes with 150 μL 4% paraformaldehyde in TBS. Fixed cells were washed 4 times for 5 minutes with TBS containing 0.1% Triton X-100 (TBST) and then blocked with 100 μL Odyssey blocking buffer (LI-COR) for 60 minutes at room temperature. […] Cells were washed 4 times for 5 minutes with TBST. Secondary antibody (IR-800CW rabbit, LI-COR, diluted 1:800) and DNA stain DRAQ5 (LI-COR, diluted 1:2000) were added and incubated 1-2 hours at room temperature. Cells were washed 4 times for 5 minutes with TBST. Plates were scanned on a Li—COR Odyssey CLx Imager. Analysis of raw data was carried out in Excel (Microsoft) and Prism (GraphPad). Signal was plotted vs. the decadal logarithm of compound concentration, and IC50 was determined by fitting a 4-parameter sigmoidal concentration response model.
Background: Bead proximity is the source of the signal in Alpha formats.

A further series relates to NCI-H358 (K-Ras G12C). Put plainly: CellTiter-Glo cell viability assay, 5-day treatment, NCI-H358. The format is cell-based. Conditions: Homo sapiens, NCI-H358, 120 h. The source says:
Determination of Cell Viability in RAS Mutant Cancer Cell Lines
Protocol: CellTiter-Glo® Cell Viability Assay
Note—The following protocol describes a procedure for monitoring cell viability of K-Ras mutant cancer cell lines in response to a compound of the invention. Other RAS isoforms may be employed, though the number of cells to be seeded will vary based on cell line used.
The purpose of this cellular assay was to determine the effects of test compounds on the proliferation of three human cancer cell lines (NCI-H358 (K-Ras G12C), AsPC-1 (K-Ras G12D), and Capan-1 (K-Ras G12V)) over a 5-day treatment period by quantifying the amount of ATP present at endpoint using the CellTiter-Glo® 2.0 Reagent (Promega).
Cells were seeded at 250 cells/well in 40 μL of growth medium in 384-well assay plates and incubated overnight in a humidified atmosphere of 5% CO2 at 37° C. On the day of the assay, 10 mM stock solutions of test compounds were first diluted into 3 mM solutions with 100% DMSO. Well-mixed compound solutions (15 μL) were transferred to the next wells containing 30 μL of 100% DMSO, and repeated until a 9-concentration 3-fold serial dilution was made (starting assay concentration of 10 μM). Test compounds (132.5 nL) were directly dispensed into the assay plates containing cells. The plates were shaken for 15 seconds at 300 rpm, centrifuged, and incubated in a humidified atmosphere of 5% CO2 at 37° C. for 5 days. On day 5, assay plates and their contents were equilibrated to room temperature for approximately 30 minutes. CellTiter-Glo® 2.0 Reagent (25 μL) was added, and plate contents were mixed for 2 minutes on an orbital shaker before incubation at room temperature for 10 minutes. Luminescence was measured using the PerkinElmer Enspire. Data were normalized by the following: (Sample signal/Avg. DMSO)*100. The data were fit using a four-parameter logistic fit.
(In general: ATP-based viability assays read luminescence as a measure of living cells.)

A further series deals with K-Ras G13C (Homo sapiens, UniProt P01116+P62937, G13C). Put plainly: Raf-Ras (FRET or MOA) binding assay: disruption of BRAF RBD interaction with K-Ras G13C in presence of Cyclophilin A. It is filed as biochemical. Conditions: read-out: IC50 in the Raf-Ras (FRET or MOA) binding assay re: K-Ras G13C. The method, then:
As used herein, the term “linker” refers to a divalent organic moiety connecting a first moiety (e.g., a macrocyclic moiety) to a second moiety (e.g., a cross-linking group). […] Compound is present in plate wells as a 10-point 3-fold dilution series starting at a final concentration of 30 μM. After incubation at 25° C. for 3 hours, a mixture of Anti-His Eu-W1024 and anti-GST allophycocyanin is then added to assay sample wells at final concentrations of 10 nM and 50 nM, respectively, and the reaction incubated for an additional 1.5 hours. TR-FRET signal is read on a microplate reader (Ex 320 nm, Em 665/615 nm). Compounds that facilitate disruption of a Ras:RAF complex are identified as those eliciting a decrease in the TR-FRET ratio relative to DMSO control wells.
Disruption of B-Raf Ras-Binding Domain (BRAF RBD) Interaction with K-Ras by Compounds of the Invention (Also Called a FRET Assay or an MOA Assay)
Note—The following protocol describes a procedure for monitoring disruption of K-Ras G12C (GMP-PNP) binding to BRAF^RBD by a compound of the invention. This protocol may also be executed substituting other Ras proteins or nucleotides.
The purpose of this biochemical assay was to measure the ability of test compounds to facilitate ternary complex formation between a nucleotide-loaded K-Ras isoform and Cyclophilin A; the resulting ternary complex disrupts binding to a BRAF^RBD Construct, inhibiting K-Ras signaling through a RAF effector. Data was reported as IC50 values.
In assay buffer containing 25 mM HEPES pH 7.3, 0.002% Tween20, 0.1% BSA, 100 mM NaCl and 5 mM MgCl2, tagless Cyclophilin A, His6-K-Ras-GMPPNP, and GST-BRAF^RBD were combined in a 384-well assay plate at final concentrations of 25 μM, 12.5 nM and 50 nM, respectively. Compound was present in plate wells as a 10-point 3-fold dilution series starting at a final concentration of 30 μM. […] TR-FRET signal was read on a microplate reader (Ex 320 nm, Em 665/615 nm). […]

The next series deals with SW1573. Particulars: Canon et al., Nature 575:217-223 (2019); cited from earlier work.
The conditions of series [1]: ester bond; 18-membered ring; EDCI/HOBT/DIPEA; DCM; 6.8 mM.

Usually IC50 stands for the point on the concentration scale where inhibition reaches its midpoint.

Sequence of K-Ras G13C (P01116 1-188 isoform P01116-2 G13C): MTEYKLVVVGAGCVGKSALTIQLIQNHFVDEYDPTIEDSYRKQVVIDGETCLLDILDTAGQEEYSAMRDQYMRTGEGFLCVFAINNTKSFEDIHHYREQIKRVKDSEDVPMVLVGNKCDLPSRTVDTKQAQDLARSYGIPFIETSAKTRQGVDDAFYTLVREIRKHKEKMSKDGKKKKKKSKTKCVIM
Sequence of K-Ras G13C (P62937 whole entry): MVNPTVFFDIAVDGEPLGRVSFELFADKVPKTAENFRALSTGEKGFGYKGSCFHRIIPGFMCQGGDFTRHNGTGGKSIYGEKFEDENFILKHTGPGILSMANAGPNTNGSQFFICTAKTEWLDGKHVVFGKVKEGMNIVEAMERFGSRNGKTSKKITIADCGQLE
T1 sequence (P01116 1-188 isoform P01116-2 G12C): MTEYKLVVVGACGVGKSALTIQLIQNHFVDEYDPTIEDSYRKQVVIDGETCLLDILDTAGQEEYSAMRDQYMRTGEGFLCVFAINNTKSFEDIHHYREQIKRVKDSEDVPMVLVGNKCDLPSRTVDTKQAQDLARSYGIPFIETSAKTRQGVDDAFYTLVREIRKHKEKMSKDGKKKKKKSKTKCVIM
T1 sequence (P62937 whole entry): as the sequence (P62937 whole entry) above

Regarding `CCn1c(-c2cccnc2[C@H](C)OC)c2c3cc(ccc31)N1CCO[C@@H](C[C@H](NC(=O)[C@H](C(C)C)N(C)C(=O)N3CCC4(CC3)CN(C(=O)/C=C/CF)C4)C(=O)N3CCC[C@H](N3)C(=O)OCC(C)(C)C2)C1` (atropisomer, axis not shown) [Example A128], the IC50 against K-Ras G12C and in the series on NCI-H358 (K-Ras G12C) was greater than 1000 nM throughout.
`CCn1c(-c2cccnc2[C@H](C)OC)c2c3cc(ccc31)-c1cccc(c1)C[C@H](NC(=O)[C@@H](COC1CN(C(=O)C#CC(C)(C)N(C)C)C1)N(C)C)C(=O)N1CCC[C@H](N1)C(=O)OCC(C)(C)C2` (atropisomer, axis not shown) [Example A169]: at K-Ras G13C, the concentration for half-maximal inhibition (IC50) is greater than 1500 nM.
As for `CCn1c(-c2cccnc2[C@H](C)OC)c2c3cc(ccc31)N1CCS[C@@H](C[C@H](NC(=O)[C@@H](COC3CN(C(=O)C#CC(C)(C)N(C)C)C3)N(C)C)C(=O)N3CCC[C@H](N3)C(=O)OCC(C)(C)C2)C1` (atropisomer, axis not shown) [Example A171], the half-inhibitory concentration (IC50) at K-Ras G13C is greater than 1500 nM.
Same read-out and setting: to `CCn1c(-c2cccnc2[C@H](C)OC)c2c3cc(ccc31)N1CCS[C@@H](C[C@H](NC(=O)[C@@H](COC3CN(C(=O)C#CC(C)(C)N(C)C)C3)C(C)C)C(=O)N3CCC[C@H](N3)C(=O)OCC(C)(C)C2)C1` (atropisomer, axis not shown) [Example A175] belongs greater than 1500 nM.
As to `C=CC(=O)N1CCOC2(CCN(C(=O)N(C)[C@H](C(=O)N[C@H]3Cc4nccc(n4)-c4ccc5c(c4)c(c(-c4cccnc4[C@H](C)OC)n5CC)CC(C)(C)COC(=O)[C@@H]4CCCN(N4)C3=O)C(C)C)CC2)C1` (atropisomer, axis not shown) [Example A191], the half-inhibitory concentration (IC50) against K-Ras G12C and in the series with NCI-H358 (K-Ras G12C) was greater than 1000 nM each time.
In the case of `CCn1c(-c2cccnc2[C@H](C)OC)c2c3cc(ccc31)C1=CCCN(C1)C[C@H](NC(=O)[C@H](C(C)C)N(C)C(=O)N1CCC3(CCN(C(=O)/C=C/CN(C)C)C3)CC1)C(=O)N1CCC[C@H](N1)C(=O)OCC(C)(C)C2` (atropisomer, axis not shown) [Example A192], the IC50 on K-Ras G12C and with NCI-H358 (K-Ras G12C) was greater than 1000 nM in each case.
`C=CC(=O)N1CCN(c2nc(=O)n(-c3c(C)ccnc3C(C)C)c3nc(-c4c(O)cccc4F)c(F)cc23)[C@@H](C)C1` [AMG510]: in the series with SW1573, the “sensitivity of cell line SW1573” value was “insensitive”.
For the compound “tert-butyl ((6^3S,4S,Z)-1^1-ethyl-1^2-(2-((S)-1-methoxyethyl)pyridin-3-yl)-10,10-dimethyl-5,7-dioxo-6^1,6^2,6^3,6^4,6^5,6^6-hexahydro-1^1H-8-oxa-2(5,3)-oxadiazola-1(5,3)-indola-6(1,3)-pyridazinacycloundecaphane-4-yl)carbamate”, the ring closure, isolated yield in series [1] was 18%.

Source of the values: patent publication US20230106174A1, “RAS INHIBITORS” (Revolution Medicines, Inc., priority 2021, published 2023).
